Source: patent US9249127B2 (Orion Corporation, priority 2012, dated 2016)
Like-named read-outs stand apart in the source and are kept apart here.

Target: T1, alpha2A receptor (Homo sapiens, UniProt P08913)
T1 sequence (P08913 1-465): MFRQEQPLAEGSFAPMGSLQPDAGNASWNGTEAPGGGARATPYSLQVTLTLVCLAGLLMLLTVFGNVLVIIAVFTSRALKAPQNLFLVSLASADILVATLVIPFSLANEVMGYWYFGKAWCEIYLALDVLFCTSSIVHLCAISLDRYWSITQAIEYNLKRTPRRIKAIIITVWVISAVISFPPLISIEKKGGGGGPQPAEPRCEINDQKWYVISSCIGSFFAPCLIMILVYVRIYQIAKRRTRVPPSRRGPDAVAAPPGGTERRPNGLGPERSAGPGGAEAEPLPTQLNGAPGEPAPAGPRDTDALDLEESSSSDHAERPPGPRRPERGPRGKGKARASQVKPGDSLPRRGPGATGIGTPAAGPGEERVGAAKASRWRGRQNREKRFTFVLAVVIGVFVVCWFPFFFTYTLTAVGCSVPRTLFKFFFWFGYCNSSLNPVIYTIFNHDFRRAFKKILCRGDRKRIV
Assay: Alpha2A agonistic activity in vitro
Format: cell-based

[1] = Alpha2A Agonism pEC50, in vitro
[2] = in vitro, read-out: Alpha2A Agonism pEC50 (converted)

Compound	EC50 [1] [µM]	Alpha2A Intrinsic Activity (in vitro)	EC50 [2] [µM]
C[C@@H]1Cc2c(OC(F)F)cccc2C(C2=NCCN2)O1 (stereo partly drawn) [Example 93, 2-((3R)-5-(difluoromethoxy)-3-methylisochroman-1-yl)-4,5-dihydro-1H-imidazole]	0.0316	0.64	–
c1cc2c3c(c1)C(C1=NCCN1)OCC3CCCC2 (centres unmarked) [Example 57, 2-(3,7,8,9,10,10a-Hexahydro-1H-cyclohepta[de]isochromen-3-yl)-4,5-dihydro-1H-imidazole]	–	0.11	2
CC[C@@H]1Cc2c(OC)cccc2C(C2=NCCN2)O1 (stereo partly drawn) [Example 91, 2-((3R)-3-ethyl-5-methoxyisochroman-1-yl)-4,5-dihydro-1H-imidazole]	0.0398	0.51	–
OCc1cccc2c1CCOC2C1=NCCN1 (centres unmarked) [Example 10, (1-(4,5-Dihydro-1H-imidazol-2-yl)isochroman-5-yl)methanol]	0.02	0.90	–
CC1(C2=NCCN2)OCc2cccc3cccc1c23 (centres unmarked) [Example 98, 2-(1-Methyl-1,3-dihydrobenzo[de]isochromen-1-yl)-4,5-dihydro-1H-imidazole]	0.0126	0.58	–
Cc1cccc2c1CCOC2(C)C1=NCCN1 (centres unmarked) [Example 3, 2-(1,5-Dimethylisochroman-1-yl)-4,5-dihydro-1H-imidazole]	0.0631	0.95	–
CCC1Cc2c(O)cccc2C(C2=NCCN2)O1 (centres unmarked) [Example 76, 1-(4,5-Dihydro-1H-imidazol-2-yl)-3-ethylisochroman-5-ol]	–	0.15	0.631
COc1cc(C)c2c(c1)C(C1=NCCN1)OCC2 (centres unmarked) [Example 61, 2-(7-Methoxy-5-methylisochroman-1-yl)-4,5-dihydro-1H-imidazole]	–	0.81	–
c1cc(-c2ccoc2)c2c(c1)C(C1=NCCN1)OCC2 (centres unmarked) [Example 54, 2-(5-(Furan-3-yl)isochroman-1-yl)-4,5-dihydro-1H-imidazole]	–	0.16	1
COc1cccc2c1C[C@H](C)OC2C1=NCCN1 (stereo partly drawn) [Example 53, 2-((3S)-5-methoxy-3-methylisochroman-1-yl)-4,5-dihydro-1H-imidazole]	–	0.72	0.316
N#Cc1cccc2c1CCOC2C1=NCCN1 (centres unmarked) [Example 5, 1-(4,5-Dihydro-1H-imidazol-2-yl)isochroman-5-carbonitrile]	–	0.59	1.26
Cc1cccc2c1CC(CC(F)(F)F)OC2C1=NCCN1 (single isomer, unassigned) [Example 86, 2-((3)-5-methyl-3-(2,2,2-trifluoroethyl)isochroman-1-yl)-4,5-dihydro-1H-imidazole]	–	0.28	0.1
Fc1cccc2c1CCOC2C1=NCCN1 (centres unmarked) [Example 42, 2-(5-Fluoroisochroman-1-yl)-4,5-dihydro-1H-imidazole]	0.0398	0.62	–
CC1(C2=NCCN2)OCCc2c(C3CC3)cccc21 (centres unmarked) [Example 24]	–	0.20	0.794
Cc1cccc2c1C[C@H](C)OC2C1=NCCN1 (stereo partly drawn) [Example 37, 2-((3S)-3,5-dimethylisochroman-1-yl)-4,5-dihydro-1H-imidazole]	–	0.63	0.316
CCc1cccc2c1CC(C)OC2C1=NCCN1 (centres unmarked) [Example 39, 2-(5-Ethyl-3-methylisochroman-1-yl)-4,5-dihydro-1H-imidazole]	0.0158	0.67	–
CC1(C2=NCCN2)OCCc2c(C(O)C(C)(C)C)cccc21 (single isomer, unassigned) [Example 13, 1-(1-(4,5-Dihydro-1H-imidazol-2-yl)-1-methylisochroman-5-yl)-2,2-dimethylpropan-1-ol]	–	0.66	1.26
CC1Cc2c(Cl)cccc2C(C2=NCCN2)O1 (centres unmarked) [Example 26, 2-(5-Chloro-3-methylisochroman-1-yl)-4,5-dihydro-1H-imidazole]	0.00398	0.82	–
CCc1cccc2c1CCOC2C1=NCCN1 (single isomer, unassigned) [Example 80]	–	0.58	0.251

Compound	EC50 [1] [µM]	Alpha2A Intrinsic Activity (in vitro)	EC50 [2] [µM]
C#Cc1cccc2c1CCOC2C1=NCCN1 (centres unmarked) [Example 15, 2-(5-Ethynylisochroman-1-yl)-4,5-dihydro-1H-imidazole]	0.0158	0.88	–
NC(=O)c1cccc2c1CCOC2C1=NCCN1 (centres unmarked) [Example 56, 1-(4,5-Dihydro-1H-imidazol-2-yl)isochroman-5-carboxamide]	–	0.11	3.16
Brc1cccc2c1CCOC2C1=NCCN1 (single isomer, unassigned) [Example 101, 2-(5-bromoisochroman-1-yl)-4,5-dihydro-1H-imidazole]	0.00316	0.89	–
Clc1cccc2c1CCOC2C1=NCCN1 (single isomer, unassigned) [Example 100, 2-(5-chloroisochroman-1-yl)-4,5-dihydro-1H-imidazole]	0.00398	0.91	–
CCc1cccc2c1C[C@@H](C)OC2C1=NCCN1 (stereo partly drawn) [Example 45, 2-((3R)-5-ethyl-3-methylisochroman-1-yl)-4,5-dihydro-1H-imidazole]	0.00631	0.73	–
CC(C)c1cccc2c1CCOC2C1=NCCN1 (centres unmarked) [Example 41, 2-(5-Isopropylisochroman-1-yl)-4,5-dihydro-1H-imidazole]	–	0.27	0.251
CCC1Cc2c(OC)cccc2C(C2=NCCN2)O1 (centres unmarked) [Example 46, 2-(3-Ethyl-5-methoxyisochroman-1-yl)-4,5-dihydro-1H-imidazole]	0.0794	0.45	–
CC1(C2=NCCN2)OCCc2c(C(O)C(C)(C)C)cccc21 (single isomer, unassigned) [Example 14, 1-(1-(4,5-Dihydro-1H-imidazol-2-yl)-1-methylisochroman-5-yl)-2,2-dimethylpropan-1-ol]	–	0.43	3.16
C[C@H]1Cc2c(Cl)cccc2C(C2=NCCN2)O1 (stereo partly drawn) [Example 34, 2-((3S)-5-chloro-3-methylisochroman-1-yl)-4,5-dihydro-1H-imidazole]	0.0631	0.78	–
COc1cccc2c1CCOC2(C)C1=NCCN1 (centres unmarked) [Example 69, 2-(5-Methoxy-1-methylisochroman-1-yl)-4,5-dihydro-1H-imidazole]	–	0.19	–
CCc1cccc2c1C[C@@H](CC)OC2C1=NCCN1 (stereo partly drawn) [Example 47, 2-((3R)-3,5-diethylisochroman-1-yl)-4,5-dihydro-1H-imidazole]	–	0.22	2
c1cc2c3c(cccc3c1)C(C1=NCCN1)OC2 (centres unmarked) [Example 102, 2-(1,3-Dihydrobenzo[de]isochromen-1-yl)-4,5-dihydro-1H-imidazole]	0.00251	0.82	–
Cc1cc(O)cc2c1CCOC2C1=NCCN1 (centres unmarked) [Example 75, 1-(4,5-Dihydro-1H-imidazol-2-yl)-5-methylisochroman-7-ol]	–	0.64	0.631
CC1Cc2c(Br)cccc2C(C2=NCCN2)O1 (centres unmarked) [Example 29, 2-(5-Bromo-3-methylisochroman-1-yl)-4,5-dihydro-1H-imidazole]	0.002	0.99	–
COc1cccc2c1C[C@@H](C)OC2C1=NCCN1 (stereo partly drawn) [Example 44, 2-((3R)-5-methoxy-3-methylisochroman-1-yl)-4,5-dihydro-1H-imidazole]	0.00794	0.83	–
CC1(C2=NCCN2)SCCc2c(Br)cccc21 (centres unmarked) [Example 66, 2-(5-Bromo-1-methylisothiochroman-1-yl)-4,5-dihydro-1H-imidazole]	–	0.43	1.58
Oc1cccc2c1CCOC2C1=NCCN1 (centres unmarked) [Example 9, 1-(4,5-Dihydro-1H-imidazol-2-yl)isochroman-5-ol]	–	0.73	0.2
Cc1cccc2c1CC(C)OC2C1=NCCN1 (centres unmarked) [Example 25, 2-(3,5-Dimethylisochroman-1-yl)-4,5-dihydro-1H-imidazole]	0.00316	0.82	–
C[C@H]1Cc2c(Br)cccc2C(C2=NCCN2)O1 (stereo partly drawn) [Example 35, 2-((3S)-5-bromo-3-methylisochroman-1-yl)-4,5-dihydro-1H-imidazole]	0.0158	0.80	–
